Data: US20050256034A1, “Dioxolane analogs for improved inter-cellular delivery” (priority 2000, published 2005)
“And” between values parts separate entries of the source, which are not always exact repeats. Equal values may be shown once. Read-outs that look alike come from different tables or passages of the source. One block for each compound: values may come before it.

Experiments:
Type in all cases: cell-based
CEM/dCK- = experiment: MMT or WST-1 assay at 72 hr; conditions: for Resistance Factor: CEM/dCK- versus CCRF-CEM
SF-268 = experiment: MTT assay at 72 hr; conditions: Homo sapiens, SF-268, read-out: IC50 (MTT at 72 hr) SF-268, 24 h exposure, single experiments
MCF-7 = experiment: MTT assay at 72 hr; conditions: Homo sapiens, MCF7, read-out: IC50 (MTT at 72 hr) MCF-7, 24 h exposure, single experiments
CCRF-CEM = experiment: MMT or WST-1 assay at 72 hr; conditions: Homo sapiens, read-out: IC50 (MMT or WST-1 at 72 hr) CCRF-CEM, 24 h exposure, single experiments
H-460 = experiment: MTT assay at 72 hr; conditions: Homo sapiens, NCI-H460, read-out: IC50 (MTT at 72 hr) H-460, 24 h exposure, single experiments
[1] = 3H-Thymidine Incorporation Assay (24 hr drug, wash, another 48 hr; 72 hr assay); conditions: for Resistance Factor = Ratio of dCK- on Wild-type CCRF-CEM / Factor (Resistance Factor = Ratio of dCK- on Wild-type CCRF-CEM): ratio of IC50 CEM/dCK- to IC50 CCRF-CEM; for Factor (Resistance Factor = Ratio of dCK- on Wild-type CCRF-CEM): 24 h exposure
CEM cells = experiment: CellTiter 96 cell proliferation assay, 48 h exposure; conditions: for effect of es transport inhibitor NBMPR on resistance of CEM cells: presence of NBMPR
Method: The chemosensitivity of suspension cells lines (e.g., CEM or CEM-derivatives) is assessed using the CellTiter 96 ? proliferation assay. […] Chemosensitivity is expressed as 50% (ECso) of the dose response curve determined, e.g., using GraphPad Prism 2.01 (GraphPad Software, San Diego, Calif.). Adherent cell lines (e.g., DU145 or DU145^R) are seeded (˜10^5 cells) in triplicate dishes, 24 h before drug exposure. Growth inhibition is determined by trypsinization and counting cells electronically.

[2] = CCRF-CEM, read-out: IC50 (3H-TdR incorporation at 72 hr) CCRF-CEM 24 h, CCRF-CEM T-cell leukemia, 24 hr exposure to drug, wash, another 48 hr
[3] = CCRF-CEM, read-out: IC50 (3H-TdR incorporation at 72 hr) CEM/dCK- 24 h, CEM/dCK- (CCRF-CEM deoxycytidine kinase-deficient), 24 hr exposure to drug, wash, another 48 hr
[4] = NCI-H460, read-out: IC50 (3H-TdR incorporation at 72 hr) H-460 24 h, H-460 human lung carcinoma, 24 hr exposure to drug, wash, another 48 hr

Compound: CCCCC(C)(C)C(=O)OC[C@H]1OC[C@@H](n2ccc(N)nc2=O)O1.Cl [Compound 107, 2,2-DIMETHYLHEXANOIC ACID 4-(4-AMINO-2-OXO-2H-PYRI- MIDIN-1-YL)-1,3-DI- OXOLAN-2-YLMETHYL ESTER HYDROCHLORIDE]
Resistance Factor (CEM/dCK-): 2,042

IC50 (MCF-7): 20 nM
IC50 (CCRF-CEM): 10 nM
IC50 [1, 2]: 0.0037 µM
IC50 [1, 3]: 5.8 µM
IC50 [1, 4]: 0.00053 µM
IC50 ([1]; read-out: IC50 (3H-TdR incorporation at 72 hr) CCRF-CEM 24 h, CCRF-CEM T-cell leukemia, 24 hr exposure to drug, wash, another 48 hr): 0.0019 µM
IC50 ([1]; read-out: IC50 (3H-TdR incorporation at 72 hr) CEM/dCK- 24 h, CEM/dCK- (CCRF-CEM deoxycytidine kinase-deficient), 24 hr exposure to drug, wash, another 48 hr): 4.5 µM
IC50 ([1]; read-out: IC50 (3H-TdR incorporation at 72 hr) H-460 24 h, H-460 human lung carcinoma, 24 hr exposure to drug, wash, another 48 hr): 0.00038 µM
Compound: Nc1ccn([C@@H]2CO[C@H](COC(=O)C34CCC[C@@H]5C[C@@H]3C[C@H]5C4)O2)c(=O)n1 [Compound 232, HEXAHYDRO-2,5-METHANO-PENTA- LENE-3A-CARBOXYLIC ACID 4-(4-AMINO-2-OXO-2H-PYRIMI- DIN-1-YL)-[1,3]DI- OXOLAN-2-YL METHYL ESTER]
IC50 (SF-268): 160 nM
IC50 (H-460): 6.9 nM
Resistance Factor (CEM/dCK-): 210
IC50 (CEM/dCK-; read-out: IC50 (MMT or WST-1 at 72 hr) CEM/dCK-, 24 h exposure, single experiments): 2100 nM

Compound: Cc1ccc(C)c(OCCCC(C)(C)C(=O)OC[C@H]2OC[C@@H](n3ccc(N)nc3=O)O2)c1 [Compound 237]
IC50 (SF-268): 3300 nM
IC50 [1, 2]: 0.0016 µM
IC50 [1, 3]: 18 µM
IC50 ([1]; MCF7, read-out: IC50 (3H-TdR incorporation at 72 hr) MCF-7 24 h, MCF-7 human breast carcinoma, 24 hr exposure to drug, wash, another 48 hr): ≤ 0.0001 µM
IC50 [1, 4]: 0.0026 µM
IC50 ([1]; SF-268, read-out: IC50 (3H-TdR incorporation at 72 hr) SF-268 24 h, SF-268 human central nervous system tumor, 24 hr exposure to drug, wash, another 48 hr): 0.088 µM
Resistance Factor = Ratio of dCK- on Wild-type CCRF-CEM [1]: 11,250

Compound: CC(CCCCCCc1ccccc1)C(=O)OC[C@H]1OC[C@@H](n2ccc(N)nc2=O)O1 (stereo partly drawn) [Compound 245, 2-METHYL-8-PHENYL-OCTANOIC ACID 4-(4-AMINO-2-OXO-2H-PYRI- MIDIN-1-YL)-[1,3]DI- OXOLAN-2-YL METHYL ESTER]
Resistance Factor = Ratio of dCK- on Wild-type CCRF-CEM [1]: > 6800

Compound: CC(C)C[C@H](N)C(=O)Nc1ccn([C@@H]2CO[C@H](CO)O2)c(=O)n1 [Compound 257, 2-AMINO-4-METHYL-PENTANOIC ACID[1-(2-HYDROXY- METHYL-[1,3]DIOXO- LAN-4-yl)-2-OXO-1,2-DIHYDRO-PYRI- MIDIN-4-YL]-AMIDE]
Resistance Factor (CEM/dCK-): >19

Compound: CC(C)C[C@H](NC(=O)[C@H](C)NC(=O)OC(C)(C)C)C(=O)Nc1ccn([C@@H]2CO[C@H](CO)O2)c(=O)n1 [Compound 263, (1-{1-[1-(2-HYDROXY- METHYL-[1,3]DIOXO- LAN-4-YL)-2-OXO-1,2-DI- HYDRO-PYRIMIDIN-4-YLCARBA- MOYL]-3-METHYL-BUTYL- CARBAMOYL}-ETHYL)-CARBAMIC ACID TERT-BUTYL ESTER]
Resistance Factor (CEM/dCK-): >5 and >7

IC50 ([1]; CCRF-CEM, read-out: IC50 in μM (3H-TdR incorporation at 72 hr) CCRF-CEM 24 h, CCRF-CEM T-cell leukemia, 24 h exposure to drug, wash, another 48 hr): 0.028 µM
IC50 ([1]; MCF7, read-out: IC50 in μM (3H-TdR incorporation at 72 hr) MCF-7 (72 h), MCF-7 human breast carcinoma, 72 h exposure): 0.0017 µM
IC50 ([1]; NCI-H460, read-out: IC50 in μM (3H-TdR incorporation at 72 hr) H-460 (72 h), H-460 human lung carcinoma, 72 h exposure): 0.025 µM
IC50 ([1]; SF-268, read-out: IC50 in μM (3H-TdR incorporation at 72 hr) SF-268 (72 h), SF-268 human central nervous system tumor, 72 h exposure): 0.018 µM
Compound: CC(C)CCCCC(=O)Nc1ccn([C@@H]2CO[C@H](COC(=O)CCCCC(C)C)O2)c(=O)n1 [Compound 276, 6-METHYL-HEPTANOIC ACID 4-[4-(6-METHYL-HEPTANOYL- AMINO)-2-OXO-2H-PYRI- MIDIN-1-YL]-[1,3]DI- OXOLAN-2-YL METHYL ESTER]
Factor (Resistance Factor = Ratio of dCK- on Wild-type CCRF-CEM) [1]: 957

Compound: CC(C)(C)C(=O)OC[C@H]1OC[C@@H](n2ccc(N)nc2=O)O1 [Compound 279, 2,2-DIMETHYL-PROPIONIC ACID 4-(4-AMINO-2-OXO-2H-PYRI- MIDIN-1-YL)-[1,3]DI- OXOLAN-2-YL METHYL ESTER]
Factor (Resistance Factor = Ratio of dCK- on Wild-type CCRF-CEM) [1]: 1854 and >1205

Compound: CC(C)[C@H](N)C(=O)Nc1ccn([C@@H]2CO[C@H](CO)O2)c(=O)n1.O=C(O)C(F)(F)F [Compound 280, 2-Amino-N-[1-(2-hydroxy-methyl-[1,3]dioxo-lan-4-yl)-2-oxo-1,2-di-hydro-pyrimidin-4-yl]-3-meth-yl-butyramide; trifluoroacetic acid salt]
Factor (Resistance Factor = Ratio of dCK- on Wild-type CCRF-CEM) [1]: >53

Compound: Nc1ccn([C@@H]2O[C@H](CO)[C@@H](O)[C@@H]2O)c(=O)n1 [Cytarabine, cytarabine]
effect of es transport inhibitor NBMPR on resistance of CEM cells (CEM cells): significantly increased resistance

Compound: Nc1ccn([C@@H]2O[C@H](CO)[C@@H](O)C2(F)F)c(=O)n1 [Gemcitabine, gemcitabine]
EC50 (CEM cells; Homo sapiens, CCRF-CEM, 48 h, read-out: Chemosensitivity, 50% of the dose response curve (EC50), CEM + NBMPR (100 nM), 48 h exposure, mean ± SD): 70 ± 18 nM
effect of es transport inhibitor NBMPR on resistance of CEM cells (CEM cells): significantly increased resistance
